Measurements: PubChem BioAssay AID330 (DTP/NCI, 2004)
“And” between values parts separate entries of the source, which are not always exact repeats. Equal entries are not always repeated. Inconclusive results and toxic doses are left out.

Test system: P388 leukemia ip, CD2F1 mice, survival T/C
Test: NCI In Vivo Anticancer Drug Screen. Data for tumor model P388 Leukemia (intraperitoneal) in CD2F1 (CDF1) mice
Details: endpoint: median survival time, higher = longer survival
Summary of the method: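 Mice carrying the transplanted tumor received test compound or vehicle. Survival was recorded in each group, and the value is the treated-group measurement divided by that of the vehicle-treated control group.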

[1] = dose: 50.0 mg/kg/injection, schedule: Q01DX009 (ip), vehicle: saline with Tween-80
[2] = dose: 100.0 mg/kg/injection, schedule: Q01DX009 (ip), vehicle: saline with Tween-80
[3] = dose: 50.0 mg/kg/injection, schedule: Q01DX009 (ip), vehicle: Klucel (hydroxypropylcellulose) (HPC)
[4] = dose: 100.0 mg/kg/injection, schedule: Q01DX009 (ip), vehicle: Klucel (hydroxypropylcellulose) (HPC)
[5] = dose: 200.0 mg/kg/injection, schedule: Q01DX009 (ip), vehicle: Klucel (hydroxypropylcellulose) (HPC)
[6] = dose: 50.0 mg/kg/injection, schedule: Q01DX005 (ip), vehicle: Klucel (hydroxypropylcellulose) (HPC)
[7] = dose: 100.0 mg/kg/injection, schedule: Q01DX005 (ip), vehicle: Klucel (hydroxypropylcellulose) (HPC)
[8] = dose: 60.0 mg/kg/injection, schedule: Q01DX005 (ip), vehicle: saline with Tween-80
[9] = dose: 120.0 mg/kg/injection, schedule: Q01DX005 (ip), vehicle: saline with Tween-80
[10] = dose: 240.0 mg/kg/injection, schedule: Q01DX005 (ip), vehicle: saline with Tween-80
[11] = dose: 100.0 mg/kg/injection, schedule: Q01DX001 (ip), vehicle: saline with Tween-80
[12] = dose: 200.0 mg/kg/injection, schedule: Q01DX001 (ip), vehicle: saline with Tween-80
[13] = dose: 200.0 mg/kg/injection, schedule: Q01DX005 (ip), vehicle: Klucel (hydroxypropylcellulose) (HPC)
[14] = dose: 400.0 mg/kg/injection, schedule: Q01DX001 (ip), vehicle: saline with Tween-80

Compound: CC(C)=CCC/C(C)=C/COC(=O)C=[N+]=[N-]
- T/C [1]: 114 % of control and 91 % of control
- T/C [2]: 122 % of control
- T/C (dose: 200.0 mg/kg/injection, schedule: Q01DX009 (ip), vehicle: saline with Tween-80): 117 % of control and 122 % of control
- T/C (dose: 400.0 mg/kg/injection, schedule: Q01DX009 (ip), vehicle: saline with Tween-80): 95 % of control

Compound: CN(C)C(=S)C(O)(c1ccccc1)c1ccccc1
- T/C [3]: 90 % of control
- T/C [4]: 100 % of control
- T/C [5]: 97 % of control

Compound: CCOc1nc2ccc(NC(C)CN3CCN(CCc4ccccc4)CC3)cc2s1 (stereo not given)
- T/C [6]: 109 % of control
- T/C [7]: 118 % of control

Compound: CCN(CC)Cc1cc(C)c(O)c(N=Nc2ccc([N+](=O)[O-])c(OC)c2)c1C
- T/C (dose: 100.0 mg/kg/injection, schedule: Q04DX003 (ip), vehicle: saline with Tween-80): 92 % of control
- T/C (dose: 200.0 mg/kg/injection, schedule: Q04DX003 (ip), vehicle: saline with Tween-80): 99 % of control
- T/C (dose: 400.0 mg/kg/injection, schedule: Q04DX003 (ip), vehicle: saline with Tween-80): 119 % of control

Compound: Nc1ccc2c(SCCCCCCSc3c4ccccc4nc4cc(N)ccc34)c3ccccc3nc2c1
- T/C [8]: 100 % of control
- T/C [9]: 101 % of control
- T/C [10]: 104 % of control

Compound: CN(C)CCN(Cc1ccco1)c1ccccn1
- T/C (dose: 12.5 mg/kg/injection, schedule: Q01DX005 (ip), vehicle: saline with Tween-80): 92 % of control
- T/C (dose: 12.5 mg/kg/injection, schedule: Q01DX005 (ip), vehicle: saline): 96 % of control and 98 % of control
- T/C (dose: 25.0 mg/kg/injection, schedule: Q01DX005 (ip), vehicle: saline with Tween-80): 100 % of control
- T/C (dose: 25.0 mg/kg/injection, schedule: Q01DX005 (ip), vehicle: saline): 96 % of control and 99 % of control
- T/C (dose: 50.0 mg/kg/injection, schedule: Q01DX005 (ip), vehicle: saline): 102 % of control [middle of 4 runs]

Compound: Cc1ccc(C(=O)Nc2ccncc2)cc1
- T/C (dose: 6.25 mg/kg/injection, schedule: Q01DX009 (ip), vehicle: Klucel (hydroxypropylcellulose) (HPC)): 109 % of control
- T/C (dose: 12.5 mg/kg/injection, schedule: Q01DX009 (ip), vehicle: Klucel (hydroxypropylcellulose) (HPC)): 99 % of control

Compound: COc1cc2c(=O)n(C)c3ccccc3c2cc1OC
- T/C (dose: 25.0 mg/kg/injection, schedule: Q01DX009 (ip), vehicle: other): 91 % of control
- T/C (dose: 50.0 mg/kg/injection, schedule: Q01DX009 (ip), vehicle: other): 90 % of control
- T/C (dose: 100.0 mg/kg/injection, schedule: Q01DX009 (ip), vehicle: other): 91 % of control
- T/C (dose: 200.0 mg/kg/injection, schedule: Q01DX009 (ip), vehicle: other): 93 % of control
- T/C (dose: 400.0 mg/kg/injection, schedule: Q01DX009 (ip), vehicle: other): 99 % of control

Compound: C/C(=N\N=c1\sc2ccccc2n1CC(=O)O)c1ccc([N+](=O)[O-])cc1
- T/C [11]: 93 % of control
- T/C [12]: 101 % of control

Compound: CC(=O)Nc1ccc(/C=N/NC(=O)c2ccc(C)cc2)cc1
- T/C (dose: 25.0 mg/kg/injection, schedule: Q01DX009 (ip), vehicle: saline with Tween-80): 103 % of control
- T/C [1]: 86 % of control

Compound: O=S(=O)(CS(=O)(=O)c1ccc(Cl)c(Cl)c1)c1ccc(Cl)c(Cl)c1
- T/C (dose: 60.0 mg/kg/injection, schedule: Q01DX005 (ip), vehicle: Klucel + Tween-80): 94 % of control
- T/C (dose: 120.0 mg/kg/injection, schedule: Q01DX005 (ip), vehicle: Klucel + Tween-80): 102 % of control

Compound: C=C1C(=O)O[C@@H]2/C=C(/C)C3=CC(=O)[C@@](C)(C[C@@H](OC(=O)C(C)CC)C12)O3 (stereo not given in full)
- T/C (dose: 10.0 mg/kg/injection, schedule: Q01DX005 (ip), vehicle: Klucel (hydroxypropylcellulose) (HPC)): 100 % of control
- T/C (dose: 20.0 mg/kg/injection, schedule: Q01DX005 (ip), vehicle: Klucel (hydroxypropylcellulose) (HPC)): 102 % of control
- T/C (dose: 40.0 mg/kg/injection, schedule: Q01DX005 (ip), vehicle: Klucel (hydroxypropylcellulose) (HPC)): 114 % of control
- T/C (dose: 80.0 mg/kg/injection, schedule: Q01DX005 (ip), vehicle: Klucel (hydroxypropylcellulose) (HPC)): 108 % of control

Compound: CSc1ccc(N=C(N)N)cc1
- T/C [1]: 108 % of control
- T/C [2]: 110 % of control

Compound: COC(=O)[C@]1(CC[N+](=O)[O-])N=C(c2ccccc2)O[C@@H]1C
- T/C [8]: 105 % of control
- T/C [9]: 109 % of control
- T/C [10]: 113 % of control

Compound: CC1(C)OC(=O)C=C[C@]2(C)[C@H]3CC[C@@]4(C)[C@H](c5ccoc5)C[C@H]5O[C@]54[C@]3(C)C(=O)[C@H](O)[C@@H]12
- T/C (dose: 1.25 mg/kg/injection, schedule: Q04DX003 (ip), vehicle: Klucel (hydroxypropylcellulose) (HPC)): 91 % of control
- T/C (dose: 2.5 mg/kg/injection, schedule: Q04DX003 (ip), vehicle: Klucel (hydroxypropylcellulose) (HPC)): 96 % of control
- T/C (dose: 5.0 mg/kg/injection, schedule: Q04DX003 (ip), vehicle: Klucel (hydroxypropylcellulose) (HPC)): 94 % of control
- T/C (dose: 10.0 mg/kg/injection, schedule: Q04DX003 (ip), vehicle: Klucel (hydroxypropylcellulose) (HPC)): 98 % of control

Compound: CCCCCCC[CH2][Sn]([CH2]CCCCCCC)([S]CC(=O)OCCCC)[S]CC(=O)OCCCC
- T/C (dose: 50.0 mg/kg/injection, schedule: Q01DX009 (ip), vehicle: saline): 99 % of control
- T/C (dose: 100.0 mg/kg/injection, schedule: Q01DX009 (ip), vehicle: saline): 92 % of control and 95 % of control
- T/C (dose: 200.0 mg/kg/injection, schedule: Q01DX009 (ip), vehicle: saline): 92 % of control and 94 % of control

Compound: CCN(CC)C(=Nc1ccc(NC(=O)c2ccc(C(=O)Nc3ccc(N=C(c4ccccc4)N(CC)CC)cc3)cc2)cc1)c1ccccc1
- T/C [6]: 96 % of control
- T/C [7]: 97 % of control
- T/C [13]: 96 % of control

Compound: CCOc1ccc(-c2nc(-c3ccc(N(C)C(=O)C(Cl)Cl)cc3)cs2)cc1OCC
- T/C (dose: 100.0 mg/kg/injection, schedule: Q04DX003 (ip), vehicle: Klucel (hydroxypropylcellulose) (HPC)): 102 % of control
- T/C (dose: 200.0 mg/kg/injection, schedule: Q04DX003 (ip), vehicle: Klucel (hydroxypropylcellulose) (HPC)): 100 % of control
- T/C (dose: 400.0 mg/kg/injection, schedule: Q04DX003 (ip), vehicle: Klucel (hydroxypropylcellulose) (HPC)): 94 % of control

Compound: CNC(=O)OCc1c(COC(=O)NC)c(-c2cc(F)ccc2F)n2c1CCC2
- T/C (dose: 12.5 mg/kg/injection, schedule: Q01DX009 (ip), vehicle: distilled water + Tween-80): 151 % of control
- T/C (dose: 25.0 mg/kg/injection, schedule: Q01DX009 (ip), vehicle: distilled water + Tween-80): 155 % of control and 156 % of control

Compound: CC(=O)O[C@H]1CC[C@@]2(C)[C@@H](CC[C@@H]3[C@@H]2CC[C@]2(C)C(=NCCO)CC[C@@H]32)C1
- T/C [6]: 108 % of control
- T/C [7]: 105 % of control
- T/C [13]: 99 % of control

Compound: COc1cc(/C=C/C(=O)NCCc2c[nH]c3ccc(O)cc23)ccc1O
- T/C (dose: 6.25 mg/kg/injection, schedule: Q01DX005 (ip), vehicle: Klucel (hydroxypropylcellulose) (HPC)): 96 % of control
- T/C (dose: 12.5 mg/kg/injection, schedule: Q01DX005 (ip), vehicle: Klucel (hydroxypropylcellulose) (HPC)): 95 % of control
- T/C (dose: 25.0 mg/kg/injection, schedule: Q01DX005 (ip), vehicle: Klucel (hydroxypropylcellulose) (HPC)): 87 % of control and 90 % of control
- T/C [6]: 88 % of control
- T/C [13]: 88 % of control

Compound: CN1C(=S)C2(C1c1ccccc1)C(C)(C)CCCC2(C)C (stereo not given)
- T/C [11]: 92 % of control
- T/C [12]: 92 % of control
- T/C [14]: 87 % of control

Compound: COC(c1ccccc1)C(Br)c1ccccc1 (stereo not given)
- T/C [11]: 104 % of control
- T/C [12]: 95 % of control
- T/C [14]: 104 % of control

Compound: ClC12CCC(c3ccccc3)(CC1)CC2
- T/C [3]: 105 % of control
- T/C [4]: 108 % of control
- T/C [5]: 99 % of control

Compound: c1ccc(Cn2c(-c3ccccc3)c[n+]3ccsc23)cc1
- T/C (dose: 3.12 mg/kg/injection, schedule: Q01DX009 (ip), vehicle: saline with Tween-80): 117 % of control
- T/C (dose: 6.25 mg/kg/injection, schedule: Q01DX009 (ip), vehicle: saline with Tween-80): 115 % of control and 94 % of control
- T/C (dose: 12.5 mg/kg/injection, schedule: Q01DX009 (ip), vehicle: saline with Tween-80): 108 % of control and 117 % of control

Compound: C=CC(=NC(C)(C)C)Nc1ccccc1C
- T/C (dose: 0.79 mg/kg/injection, schedule: Q01DX009 (ip), vehicle: saline): 99 % of control and 103 % of control and 90 % of control
- T/C (dose: 1.56 mg/kg/injection, schedule: Q01DX009 (ip), vehicle: saline): 101 % of control and 89 % of control
- T/C (dose: 12.5 mg/kg/injection, schedule: Q01DX009 (ip), vehicle: saline): 99 % of control
